Earlier results, collected in US5431925A, “Nutritive composition for prevention and therapy of infection diseases caused by immunosuppression” (Snow Brand Milk Products Co., Ltd., priority 1991, dated 1995).

Conditions: mouse

SMILES | LD50
CC1=C(/C=C/C(C)=C/C=C/C(C)=C/C(=O)O)C(C)(C)CCC1 [retinoic acid] | ≥ 4,000 mg/kg
CC1=C(/C=C/C(C)=C/C=C/C(C)=C/CO)C(C)(C)CCC1 [retinol] | ≥ 4,100 mg/kg
